Data published in patent US20230365592A1 (Agios Pharmaceuticals, Inc., priority 2022, published 2023).
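Note: after compound treatment, cells received sepiapterin plus isotope-labelled Phenylalanine for 4 hours, then labelled Tyrosine in the medium was quantified, 10-point 2-fold dilution series run in duplicate.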

These compounds were tested against T1, human PAH with the R408W mutation (Homo sapiens, UniProt P00439, R408W) (assay: Cell Based Phenylalanine Flux Assay). Conditions: A375 cells expressing human R408W PAH; 24 hrs compound incubation; 13C-Tyrosine by LC-MS; average where tested multiple times; read-out: AC50.
T1 construct: expressed in transfected cells
T1 sequence (P00439 1-452 R408W): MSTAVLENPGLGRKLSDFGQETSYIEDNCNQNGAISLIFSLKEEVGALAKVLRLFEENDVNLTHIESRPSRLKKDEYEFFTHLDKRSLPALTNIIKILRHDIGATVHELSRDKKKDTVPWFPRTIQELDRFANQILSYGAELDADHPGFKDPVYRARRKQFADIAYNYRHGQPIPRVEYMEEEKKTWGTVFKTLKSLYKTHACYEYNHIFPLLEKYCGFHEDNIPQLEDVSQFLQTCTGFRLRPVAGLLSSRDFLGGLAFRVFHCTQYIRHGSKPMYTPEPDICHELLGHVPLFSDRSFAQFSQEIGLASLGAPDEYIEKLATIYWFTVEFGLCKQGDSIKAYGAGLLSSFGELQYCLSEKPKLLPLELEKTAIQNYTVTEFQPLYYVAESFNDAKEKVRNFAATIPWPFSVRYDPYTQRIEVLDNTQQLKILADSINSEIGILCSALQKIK
With `Cn1cc(-c2nnc(C(=O)N3CCc4[nH]cnc4[C@H]3c3cc4c(Cl)cccn4n3)o2)cn1` [Example 688, (S)-(4-(4-chloropyrazolo[1,5-a]pyridin-2-yl)-6,7-dihydro-1H-imidazo[4,5-c]pyridin-5(4H)-yl)(5-(1-methyl-1H-pyrazol-4-yl)-1,3,4-oxadiazol-2-yl)methanone] the AC50 was < 500 nM. For `Cn1cc(-c2nnc(C(=O)N3CCc4[nH]cnc4[C@@H]3c3cc4c(Cl)cccn4n3)o2)cn1` [Example 689, (R)-(4-(4-chloropyrazolo[1,5-a]pyridin-2-yl)-6,7-dihydro-1H-imidazo[4,5-c]pyridin-5(4H)-yl)(5-(1-methyl-1H-pyrazol-4-yl)-1,3,4-oxadiazol-2-yl)methanone], the AC50 was > 5000 nM. `C[C@@H](O)c1nc(C(F)F)c(C(=O)N2CCc3[nH]cnc3[C@H]2c2cc3ccccn3n2)o1` [Example 690, (4-(difluoromethyl)-2-((R)-1-hydroxyethyl)oxazol-5-yl)((S)-4-(pyrazolo[1,5-a]pyridin-2-yl)-6,7-dihydro-1H-imidazo[4,5-c]pyridin-5(4H)-yl)methanone] was tested, and the AC50 was < 500 nM. For `C[C@H](O)c1nc(C(F)F)c(C(=O)N2CCc3[nH]cnc3[C@H]2c2cc3ccccn3n2)o1` [Example 692, (4-(difluoromethyl)-2-((S)-1-hydroxyethyl)oxazol-5-yl)((S)-4-(pyrazolo[1,5-a]pyridin-2-yl)-6,7-dihydro-1H-imidazo[4,5-c]pyridin-5(4H)-yl)methanone], the AC50 was < 500 nM. For `C[C@H](O)c1nc(C(F)F)c(C(=O)N2CCc3[nH]cnc3[C@@H]2c2cc3ccccn3n2)o1` [Example 693, (4-(difluoromethyl)-2-((S)-1-hydroxyethyl)oxazol-5-yl)((R)-4-(pyrazolo[1,5-a]pyridin-2-yl)-6,7-dihydro-1H-imidazo[4,5-c]pyridin-5(4H)-yl)methanone], the AC50 was > 5000 nM. In the case of `Cn1nc(Cl)nc1C(=O)N1CCc2[nH]cnc2[C@H]1c1cc2ccccn2n1` [Example 694, (S)-(3-chloro-1-methyl-1H-1,2,4-triazol-5-yl)(4-(pyrazolo[1,5-a]pyridin-2-yl)-6,7-dihydro-1H-imidazo[4,5-c]pyridin-5(4H)-yl)methanone], the AC50 is reported as < 500 nM. `Cn1nc(Cl)nc1C(=O)N1CCc2[nH]cnc2[C@@H]1c1cc2ccccn2n1` [Example 695, (R)-(3-chloro-1-methyl-1H-1,2,4-triazol-5-yl)(4-(pyrazolo[1,5-a]pyridin-2-yl)-6,7-dihydro-1H-imidazo[4,5-c]pyridin-5(4H)-yl)methanone] was tested, and the AC50 was > 5000 nM. In the case of `Cn1cc(-c2nnc(C(=O)N3CCc4[nH]cnc4[C@H]3c3cc4ccc(Cl)cn4n3)o2)cn1` [Example 696, (S)-(4-(6-chloropyrazolo[1,5-a]pyridin-2-yl)-6,7-dihydro-1H-imidazo[4,5-c]pyridin-5(4H)-yl)(5-(1-methyl-1H-pyrazol-4-yl)-1,3,4-oxadiazol-2-yl)methanone], the AC50 is reported as < 500 nM. In the case of `Cn1cc(-c2nnc(C(=O)N3CCc4[nH]cnc4[C@@H]3c3cc4ccc(Cl)cn4n3)o2)cn1` [Example 697, (R)-(4-(6-chloropyrazolo[1,5-a]pyridin-2-yl)-6,7-dihydro-1H-imidazo[4,5-c]pyridin-5(4H)-yl)(5-(1-methyl-1H-pyrazol-4-yl)-1,3,4-oxadiazol-2-yl)methanone], the AC50 is reported as > 5000 nM. `CC(C)(C#N)c1nc(C(F)F)c(C(=O)N2CCc3[nH]cnc3[C@H]2c2cc3ccccn3n2)o1` [Example 699, (S)-2-(4-(difluoromethyl)-5-(4-(pyrazolo[1,5-a]pyridin-2-yl)-4,5,6,7-tetrahydro-1H-imidazo[4,5-c]pyridine-5-carbonyl)oxazol-2-yl)-2-methylpropanenitrile] was tested, and the AC50 was < 500 nM. For `CC(C)(O)c1nc(C(F)F)c(C(=O)N2CCc3[nH]cnc3[C@H]2c2cc3c(Cl)cccn3n2)o1` [Example 700, (S)-(4-(4-chloropyrazolo[1,5-a]pyridin-2-yl)-6,7-dihydro-1H-imidazo[4,5-c]pyridin-5(4H)-yl)(4-(difluoromethyl)-2-(2-hydroxypropan-2-yl)oxazol-5-yl)methanone], the AC50 was < 500 nM. Compound `CC(C)(O)c1nc(C(F)F)c(C(=O)N2CCc3[nH]cnc3[C@@H]2c2cc3c(Cl)cccn3n2)o1` [Example 701, (R)-(4-(4-chloropyrazolo[1,5-a]pyridin-2-yl)-6,7-dihydro-1H-imidazo[4,5-c]pyridin-5(4H)-yl)(4-(difluoromethyl)-2-(2-hydroxypropan-2-yl)oxazol-5-yl)methanone] has an AC50 of 1000 to 5000 nM. `C[C@@H](O)c1nc(C(F)F)c(C(=O)N2CCc3[nH]cnc3[C@H]2c2cc3c(Cl)cccn3n2)o1` [Example 702, ((S)-4-(4-chloropyrazolo[1,5-a]pyridin-2-yl)-6,7-dihydro-1H-imidazo[4,5-c]pyridin-5(4H)-yl)(4-(difluoromethyl)-2-((R)-1-hydroxyethyl)oxazol-5-yl)methanone] was tested, and the AC50 was < 500 nM. `C[C@@H](O)c1nc(C(F)F)c(C(=O)N2CCc3[nH]cnc3[C@@H]2c2cc3c(Cl)cccn3n2)o1` [Example 703, ((R)-4-(4-chloropyrazolo[1,5-a]pyridin-2-yl)-6,7-dihydro-1H-imidazo[4.5-c]pyridin-5(4H)-yl)(4-(difluoromethyl)-2-((R)-1-hydroxyethyl)oxazol-5-yl)methanone] gave an AC50 of 1000 to 5000 nM. In the case of `O=C(c1oc(C2(O)CC2)nc1C(F)F)N1CCc2[nH]cnc2[C@H]1c1cc2c(Cl)cccn2n1` [Example 704, (S)-(4-(4-chloropyrazolo[1,5-a]pyridin-2-yl)-6,7-dihydro-1H-imidazo[4,5-c]pyridin-5(4H)-yl)(4-(difluoromethyl)-2-(1-hydroxycyclopropyl)oxazol-5-yl)methanone], the AC50 is reported as < 500 nM. In the case of `Cc1nc([C@@H](C)O)oc1C(=O)N1CCc2[nH]cnc2[C@H]1c1cc2c(Cl)cccn2n1` [Example 706, ((S)-4-(4-chloropyrazolo[1,5-a]pyridin-2-yl)-6,7-dihydro-1H-imidazo[4,5-c]pyridin-5(4H)-yl)(2-((R)-1-hydroxyethyl)-4-methyloxazol-5-yl)methanone], the AC50 is reported as < 500 nM. With `Cc1nc([C@H](C)O)oc1C(=O)N1CCc2[nH]cnc2[C@H]1c1cc2c(Cl)cccn2n1` [Example 708, ((S)-4-(4-chloropyrazolo[1,5-a]pyridin-2-yl)-6,7-dihydro-1H-imidazo[4,5-c]pyridin-5(4H)-yl)(2((S)-1-hydroxyethyl)-4-methyloxazol-5-yl)methanone] the AC50 was < 500 nM. `C[C@@H](O)c1nc(C(F)F)c(C(=O)N2CCc3[nH]cnc3[C@H]2c2cc3c(F)cccn3n2)o1` [Example 710, (4-(difluoromethyl)-2-((R)-1-hydroxyethyl)oxazol-5-yl)((s)-4-(4-fluoropyrazolo[1,5-a]pyridin-2-yl)-6,7-dihydro-1H-imidazo[4,5-c]pyridin-5(4H)-yl)methanone] was tested, and the AC50 was < 500 nM. For `CC(C)(O)c1nc(C(F)F)c(C(=O)N2CCc3[nH]cnc3[C@H]2c2cc3c(F)cccn3n2)o1` [Example 714, (S)-(4-(difluoromethyl)-2-(2-hydroxypropan-2-yl)oxazol-5-yl)(4-(4-fluoropyrazolo[1,5-a]pyridin-2-yl)-6,7-dihydro-1H-imidazo[4,5-c]pyridin-5(4H)-yl)methanone], the AC50 was < 500 nM. With `CC(C)(O)c1nc(C(F)F)c(C(=O)N2CCc3[nH]cnc3[C@@H]2c2cc3c(F)cccn3n2)o1` [Example 715, (R)-(4-(difluoromethyl)-2-(2-hydroxypropan-2-yl)oxazol-5-yl)(4-(4-fluoropyrazolo[1,5-a]pyridin-2-yl)-6,7-dihydro-1H-imidazo[4,5-c]pyridin-5(4H)-yl)methanone] the AC50 was > 5000 nM. With `O=C(c1ccnn1C(F)(F)F)N1CCc2[nH]cnc2[C@H]1c1cc2ccccn2n1` [Example 716, (S)-(4-(pyrazolo[1,5-a]pyridin-2-yl)-6,7-dihydro-1H-imidazo[4,5-c]pyridin-5(4H)-yl)(1-(trifluoromethyl)-1H-pyrazol-5-yl)methanone] the AC50 was < 500 nM. `O=C(c1ccnn1C(F)(F)F)N1CCc2[nH]cnc2[C@@H]1c1cc2ccccn2n1` [Example 717, (R)-(4-(pyrazolo[1,5-a]pyridin-2-yl)-6,7-dihydro-1H-imidazo[4,5-c]pyridin-5(4H)-yl)(1-(trifluoromethyl)-1H-pyrazol-5-yl)methanone] gave an AC50 of 500 to 1000 nM. With `Cn1ccc(-c2nnc(C(=O)N3CCc4[nH]cnc4[C@H]3c3cc4c(Cl)cccn4n3)o2)n1` [Example 718, (S)-(4-(4-chloropyrazolo[1,5-a]pyridin-2-yl)-6,7-dihydro-1H-imidazo[4,5-c]pyridin-5(4H)-yl)(5-(1-methyl-1H-pyrazol-3-yl)-1,3,4-oxadiazol-2-yl)methanone] the AC50 was < 500 nM. For `Cn1ccc(-c2nnc(C(=O)N3CCc4[nH]cnc4[C@@H]3c3cc4c(Cl)cccn4n3)o2)n1` [Example 719, (R)-(4-(4-chloropyrazolo[1,5-a]pyridin-2-yl)-6,7-dihydro-1H-imidazo[4,5-c]pyridin-5(4H)-yl)(5-(1-methyl-1H-pyrazol-3-yl)-1,3,4-oxadiazol-2-yl)methanone], the AC50 was > 5000 nM. `CC(C)(O)c1nc(Cl)c(C(=O)N2CCc3[nH]cnc3[C@H]2c2cc3c(Cl)cccn3n2)o1` [Example 720, (S)-(4-chloro-2-(2-hydroxypropan-2-yl)oxazol-5-yl)(4-(4-chloropyrazolo[1,5-a]pyridin-2-yl)-6,7-dihydro-1H-imidazo[4,5-c]pyridin-5(4H)-yl)methanone] was tested, and the AC50 was < 500 nM. With `CC(C)(O)c1nc(Cl)c(C(=O)N2CCc3[nH]cnc3[C@@H]2c2cc3c(Cl)cccn3n2)o1` [Example 721, (R)-(4-chloro-2-(2-hydroxypropan-2-yl)oxazol-5-yl)(4-(4-chloropyrazolo[1,5-a]pyridin-2-yl)-6,7-dihydro-1H-imidazo[4,5-c]pyridin-5(4H)-yl)methanone] the AC50 was > 5000 nM.
